What was measured:
Format in all cases: in vivo
Indian millet [1] = assay: Herbicidal activity by field foliage treatment (Test example 3); design: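 index 0 to 10 in 10% steps of herbicidal effect with 10 meaning complete death and 0 below 10%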; conditions: 1000 g effective component per hectare, day 14 after the treatment
In short: (§1)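 Plants were grown from seed in field soil in a greenhouse for 2 weeks, then sprayed over the whole foliage with a water-diluted wettable powder at 1000 L/ha spray volume, delivering 1000 g active ingredient per hectare. Herbicidal effect was scored on day 14 after treatment.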

A. retroflexus [2] = assay: as above; design: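 index 0 to 10 in 10% steps of herbicidal effect with 10 meaning complete death and 0 below 10%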; conditions: 1000 g effective component per hectare, day 14 after the treatment
In short: as §1

Monochoria vaginalis = assay: Herbicidal activity by paddy field soil treatment (Test Example 1); design: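 index 0 to 10 in 10% steps of herbicidal effect with 10 meaning complete death and 0 below 10%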; conditions: 1000 g of effective component per hectare, evaluated on day 21 after the treatment, criteria of Table 72
In short: (§2)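 Seeds were sown in puddled paddy soil in pots flooded to 3 cm water depth; the next day a water-diluted wettable powder was applied to the water surface at 1000 g active ingredient/ha. Plants were grown in a greenhouse and herbicidal effect scored by graded criteria on day 21 after treatment.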

Echinochloa oryzicola = assay: as above; design: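 index 0 to 10 in 10% steps of herbicidal effect with 10 meaning complete death and 0 below 10%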; conditions: 1000 g of effective component per hectare, evaluated on day 21 after the treatment, criteria of Table 72
In short: as §2

Scirpus juncoides Rocxb. = assay: as above; design: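 index 0 to 10 in 10% steps of herbicidal effect with 10 meaning complete death and 0 below 10%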; conditions: applied on water surface, 1000 g of effective component per hectare, day 21 after the treatment
In short: as §2

Echinochloa crus-galli [3] = assay: Herbicidal activity by field foliage treatment (Test example 3); design: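 index 0 to 10 in 10% steps of herbicidal effect with 10 meaning complete death and 0 below 10%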; conditions: 1000 g effective component per hectare, day 14 after the treatment
In short: (§3)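 Potted field-soil plants grown 2 weeks in a greenhouse were sprayed over the whole foliage with diluted wettable powder at 1000 L/ha, delivering 1000 g active ingredient per hectare. Herbicidal effect scored by visual criteria 14 days after treatment.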

Indian millet [4] = assay: Herbicidal activity by field soil treatment (Test example 2); design: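 index 0 to 10 in 10% steps of herbicidal effect with 10 meaning complete death and 0 below 10%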; conditions: 1000 g effective component per hectare, day 21 after the treatment
In short: (§4)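 Seeds were sown in field soil in 80 cm^2 pots and covered with soil. A water-diluted wettable powder was then sprayed onto the soil surface at 1000 liters per hectare, delivering 1000 g active ingredient per hectare. Plants grew in a greenhouse, and herbicidal effect was scored against set criteria 21 days after treatment.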

Echinochloa crus-galli [5] = assay: as above; design: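 index 0 to 10 in 10% steps of herbicidal effect with 10 meaning complete death and 0 below 10%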; conditions: 1000 g effective component per hectare, day 21 after the treatment
In short: as §4

A. retroflexus [6] = assay: as above; design: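 index 0 to 10 in 10% steps of herbicidal effect with 10 meaning complete death and 0 below 10%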; conditions: 1000 g effective component per hectare, day 21 after the treatment
In short: as §4

Setaria viridis = assay: Herbicidal activity by field foliage treatment (Test example 3); conditions: 1000 g effective component per hectare, day 14 after the treatment;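 also: index 0 to 10 in 10% steps of herbicidal effect with 10 meaning complete death and 0 below 10%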
In short: as §3

foxtail = assay: Herbicidal activity by field soil treatment (Test example 2); conditions: 1000 g effective component per hectare, day 21 after the treatment;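 also: index 0 to 10 in 10% steps of herbicidal effect with 10 meaning complete death and 0 below 10%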
In short: as §4

| SMILES | herbicidal effect index, Abutilon theophrasti (Indian millet [1]) | herbicidal effect index, Amaranthus retroflexus (A. retroflexus [2]) | Herbicidal effects index number, Monochoria vaginalis (Monochoria vaginalis) | Herbicidal effects index number, Echinochloa oryzicola (Echinochloa oryzicola) | herbicidal effect index, S. juncoides Rocxb. (Scirpus juncoides Rocxb.) | herbicidal effect index, Echinochloa crus-galli (Echinochloa crus-galli [3]) | herbicidal effect index, Abutilon theophrasti (Indian millet [4]) | herbicidal effect index, Echinochloa crus-galli (Echinochloa crus-galli [5]) | herbicidal effect index, Amaranthus retroflexus (A. retroflexus [6]) | herbicidal effect index, Setaria viridis (Setaria viridis) | herbicidal effect index, Setaria viridis (foxtail) |
| --- | --- | --- | --- | --- | --- | --- | --- | --- | --- | --- | --- |
| Cc1cccc(-n2c(=O)c(C(=O)C3=C(O)CCCC3=O)nn(C)c2=O)c1 [I-58] | 10 | 10 | 10 | 10 | 10 | 10 | 10 | 10 | 10 | 10 | 8 |
| Cn1nc(C(=O)C2=C(O)CCCC2=O)c(=O)n(-c2ccccc2C(F)(F)F)c1=O [I-63] | 10 | 10 | 10 | 10 | 10 | 10 | 10 | 10 | 10 | 10 | 10 |
| Cn1nc(C(=O)C2=C(O)CCCC2=O)c(=O)n(-c2ccccc2[N+](=O)[O-])c1=O [I-66] | 10 | 10 | 10 | 10 | 10 | 10 | 10 | 10 | 10 | 10 | 10 |
| Cn1nc(C(=O)C2=C(O)CCCC2=O)c(=O)n(-c2cccc([N+](=O)[O-])c2)c1=O [I-67] | 10 | 10 | 10 | 10 | 10 | 10 | 10 | 10 | 10 | 10 | 10 |
| Cn1nc(C(=O)C2=C(O)CCCC2=O)c(=O)n(-c2ccc([N+](=O)[O-])cc2)c1=O [I-68] | 10 | 10 | 10 | 10 | 10 | 10 | 10 | 10 | 10 | 8 | 10 |
| Cn1nc(C(=O)C2=C(O)CCCC2=O)c(=O)n(-c2ccc(OC(F)(F)F)cc2)c1=O [I-71] | 9 | 10 | 10 | 10 | 10 | 10 | 10 | 10 | 10 | 9 | 6 |
| Cn1nc(C(=O)C2=C(O)CCCC2=O)c(=O)n(-c2ccccc2C#N)c1=O [I-72] | 10 | 10 | 10 | 10 | 10 | 10 | 10 | 9 | 10 | 10 | 10 |
| Cn1nc(C(=O)C2=C(O)CCCC2=O)c(=O)n(-c2cccc(C#N)c2)c1=O [I-73] | 10 | 10 | 10 | 10 | 10 | 10 | 10 | 9 | 10 | 10 | 8 |
| Cn1nc(C(=O)C2=C(O)CCCC2=O)c(=O)n(-c2ccc(C#N)cc2)c1=O [I-74] | 9 | 10 | 10 | 10 | 10 | 9 | 10 | 10 | 10 | 9 | 7 |
| Cn1nc(C(=O)C2=C(O)CCCC2=O)c(=O)n(-c2ccc(F)c(F)c2)c1=O [I-75] | 10 | 10 | 10 | 10 | 10 | 10 | 10 | 9 | 10 | 10 | 7 |
| Cn1nc(C(=O)C2=C(O)CCCC2=O)c(=O)n(-c2cc(F)cc(F)c2)c1=O [I-76] | 10 | 10 | 10 | 10 | 10 | 10 | 10 | 10 | 10 | 9 | 9 |
| Cn1nc(C(=O)C2=C(O)CCCC2=O)c(=O)n(-c2cccc(F)c2F)c1=O [I-77] | 10 | 10 | 10 | 10 | 10 | 10 | 10 | 9 | 10 | 10 | 9 |

Reference: patent publication US8969554B2, “6-acyl-1,2,4-triazine-3,5-dione derivative and herbicides” (Kumiai Chemical Industry Co., Ltd., priority 2010, dated 2015)
